Laboratory results from paper doi:10.1101/2025.06.15.659787v1 (biorxiv, 2025).

Target: Mtb-SufS (Mycobacterium tuberculosis, UniProt P9WQ69)
Sequence (P9WQ69 whole entry): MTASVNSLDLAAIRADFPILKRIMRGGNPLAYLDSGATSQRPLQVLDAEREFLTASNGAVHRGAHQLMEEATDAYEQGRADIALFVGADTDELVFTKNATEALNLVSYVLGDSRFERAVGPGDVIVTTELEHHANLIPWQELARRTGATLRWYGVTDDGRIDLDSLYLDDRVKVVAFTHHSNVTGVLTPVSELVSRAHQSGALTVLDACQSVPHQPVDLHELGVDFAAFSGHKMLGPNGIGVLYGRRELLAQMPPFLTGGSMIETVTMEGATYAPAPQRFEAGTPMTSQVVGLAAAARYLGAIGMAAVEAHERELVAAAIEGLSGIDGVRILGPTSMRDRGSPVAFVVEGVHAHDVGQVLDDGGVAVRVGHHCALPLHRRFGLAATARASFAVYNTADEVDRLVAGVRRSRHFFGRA

Structure (SMILES): N[C@@H](CS)C(=O)O [L-Cys]
- GC-MS assay of L-Ala formation: Mtb-SufS shows low basal activity
